Source: US9364462B2, “Alpha-1-adrenergic receptor agonist therapy” (The Regents of the University of California, priority 2012, dated 2016)

What was measured:
[1] = Learning and memory, Barnes maze, long-term treatment of normal WT mice; format: in vivo, mouse; settings: 9 months, 10 mg/L in drinking water
Experimental: FIG. 18. Long-term alpha-1A agonist therapy improves learning and memory. Normal WT mice were treated 9 months with the alpha-1A agonist cirazoline, 10 mg/L in drinking water, and learning and memory were tested versus control mice using the Barnes maze. Left. […] Right. […] These studies treated mice for long periods with cirazoline, adding it to the drinking water. Mice treated with cirazoline had improvements in tests of learning and of memory (FIG. 18). […] 9 months in a mouse is equivalent to 18 to 27 years in a human.

cardiac myocytes = assay: Cardiac cell protective and adaptive (anabolic) effects in vitro, comparison of alpha-1-agonists; format: cell-based

## c1ccc(C2CC2)c(OCC2=NCCN2)c1 [cirazoline]
[1]
  memory trials (errors made): Findings were similar
[1]; vs control mice
  errors in learning trials: fewer errors
  time to solve in learning trials: faster to solve
Cardiac myocytes; cardiac myocytes, FIG. 1-2
  potency and efficacy relative to A61603: a good bit less potent and efficacious
Cardiac myocytes; cells (e.g. cardiac myocytes)
  specificity, potency, efficacy in stimulating anabolic effects in cells relative to A61603: not as specific, potent, or efficacious as A61603
